“Also recorded” adds a separate entry of the source.

The target of one experiment is PDE5 (Homo sapiens, UniProt O76074). Kind of experiment: Determination of % inhibition of PDE5 activity. It is filed as biochemical.
The subject of a further experiment is bax/bak DKO MEF cells. As to the kind of experiment: Etoposide induced cell death of bax/bak DKO cells. It counts as cell-based, mouse. The note with it: MBCQ 10 μM; for cell death induced by etoposide: etoposide 8 μM, spautin 10 μM, 3-MA 10 mM, 8 h. Here is the method: C, cells were collected for western blotting using anti-LC3 antibody. α-tubulin was used as a control. D-F, Bax/bak DKO cells were treated with spautin (10 μM) or indicated concentration, in the presence of or absent etoposide (8 μM) for 8 h or indicated time. […] F, Cells were collected for western blotting using anti-LC3 antibody. α-tubulin was used as a control.
Autophagy has been proposed to contribute to cell death in a number of apoptotic deficient cell types. For example, bax/bak double deficient mouse embryonic fibroblast cells (DKO mefs) are highly resistant to apoptosis (Wei, M. C., Zong, W. X., Cheng, E. H., Lindsten, T., Panoutsakopoulou, V., Ross, A. J., Roth, K. A., MacGregor, G. R., Thompson, C. B., and Korsmeyer, S. J. (2001). Proapoptotic BAX and BAK: a requisite gateway to mitochondrial dysfunction and death. Science 292, 727-730).

The next experiment concerns PI3P (FYVE-RFP). As to the kind of experiment: FYVE-RFP spots in H4-FYVE cells. The note with it: 10 μM; for levels of FYVE-RFP spots: basal and rapamycin treated H4 cells. It is filed as cell-based. The method, then: H4-FYVE cells were treated with DMSO (0.1%), MBCQ (10 μM) or C43 (spautin) (10 μM) for indicated time. A, The images were analyzed by fluorescence microscopy and quantified by HCS after fixing in 4% paraformaldehyde and stained with 4,6-diamidino-2-phenylindole (DAPI, 3 μg/mL). Images of 1000 cells for each compound treatment were analyzed by ArrayScan HCS 4.0 Reader with a 20× objective (Cellomics, Pittsburgh, Pa.). B, H4-FYVE cells were treated with DMSO (0.1%), RAPA (0.2 μM) alone, MBCQ (10 μM) or C43 (spautin) (10 μM) with or without RAPA (0.2 uM) for 8 h. The cell lysates were collected for western blotting using anti-RFP and anti-tubulin as a loading control.
The levels of PtdIns3P (PI3P) are known to play a critical role in mediating autophagy (Levine, B., and Klionsky, D. J. (2004). Development by self-digestion: molecular mechanisms and biological functions of autophagy. Dev Cell 6, 463-477). To ask if MBCQ has an effect on PI3P, H4 cells expressing FYVE-RFP were used. FYVE binds specifically to PI3P and is widely used as a marker for cellular levels for PI3P (Gaullier, J. M., Simonsen, A., D'Arrigo, A., Bremnes, B., Stenmark, H., and Aasland, R. (1998). FYVE fingers bind PtdIns(3)P. Nature 394, 432-433).

For a further experiment, the system named is PtdIns3P. Kind of experiment: Lipid dot blot assay for cellular PtdIns3P. It is filed as cell-based, mouse. The conditions noted are these: 10 μM, 3 h; basal and rapamycin treated cells. The method, then: FIG. 9 depicts results showing that MBCQ and C43 (spautin) selectively reduce the cellular levels of PtdIns3P. MEF cells were treated with DMSO (0.1%), RAPA (0.2 μM) alone, A, MBCQ (10 μM) or B, C43 (spautin) (10 μM) with or without RAPA (0.2 μM) for 3 h. The cellular PtdIns species were extracted and applied onto polyvinylidene fluoride membrane. The levels of PtdIns3P were detected using GST-PX domain protein and anti-GST antibody.
To further determine the effect of MBCQ on the cellular levels of PtdIns3P, a lipid dot blot assay was used. The cellular PtdIns species were extracted and applied onto polyvinylidene fluoride membrane. The levels of PtdIns3P was detected using GST-PX domain protein and anti-GST antibody. […] Taken together, it was concluded that MBCQ reduces the levels of PtdIns3P.

Experiment [1] deals with Vps34 complexes. Kind of experiment: Levels of transfected Vps34 complex proteins in 293T cells (western blot). It is filed as cell-based. The note with it: for levels of GFP-p150 and Atg14L: 10 μM, 4 h; for levels of flag-tagged Beclin1 and HA-Vps34: 12 h. On the technique in general: Immunoblotting shows a protein as a band on a membrane.
In another experiment the test system is LC3II in liver. Kind of experiment: Autophagy in liver of rapamycin injected mice. It counts as in vivo. The conditions noted are these: rapamycin 10 mg/kg, 40 mg/kg intraperitoneally every hour for 4 h. The method, then:
FIG. 13 depicts results showing the effect of MBCQ and derivatives in vivo. (A) Mice were injected with rapamycin (10 mg/kg) alone as a positive control, or with C43 or MBCQ (40 mg/kg) intraperitoneally every hour for 4 h and then sacrificed at 5 th h. The autophagy levels in liver were analyzed by western blotting using anti-LC3 antibody. (B) C43 reduces the levels of autophagy induced by cerulein. Rats were injected intraperitoneally with cerulein (50 μg/kg) alone or with C43 (40 mg/kg) hourly for 4 times. The rats were sacrificed at one h after the last injection and the pancreas were isolated for western blotting analysis using anti-LC3 and anti-tubulin (as a control).
To begin to test the effect of MBCQ derivatives in vivo, the ability of MBCQ derivatives to inhibit autophagy in rapamycin injected mice was investigated. Mice were injected with rapamycin (10 mg/kg) alone as a positive control, or with C43 or MBCQ (40 mg/kg) intraperitoneally every hour for 4 h and then sacrificed at the fifth hour. The autophagy levels in liver were then analyzed by western blotting using anti-LC3 antibody. […] Thus, it was determined that C43 and MBCQ are both active in vivo in inhibiting autophagy.

In experiment [2] the test system is Vps34 complexes. Kind of experiment: Levels of endogenous Beclin1, Vps34, Atg14L in H4 and 293T cells (western blot). The conditions noted are these: for levels of endogenous Beclin1 in the presence of CHX: 293T cells, 6 h, versus CHX alone; for levels of endogenous Beclin1, Vps34 and Atg14L: H4 cells and 293T cells, 10 μM, 3-MA 10 mM.
Description: Twenty-four hours after the transfection, the cells were treated with indicated compounds for 12 h. The cell lysates were analyzed by western blotting using anti-HA, anti-flag or anti-tubulin. […] The cell lysates were harvested and analyzed by western blotting using: anti-Beclin1, anti-Atg14, anti-Vps34 and anti-UVRAG. Anti-α-tubulin was used as loading controls. […] The cell lysates were harvested and analyzed by western blotting using: anti-Beclin1 and anti-LC3. Anti-α-tubulin was used as loading controls.

In the case of `Clc1ccc2ncnc(NCc3ccc4c(c3)OCO4)c2c1` [MBCQ], the “% Inhibition of PDE5 activity, Average” value on PDE5 (Concentration = 0.2 μM) amounted to 54.4%. In addition, the “% Inhibition of PDE5 activity, Average” value on PDE5 (Concentration = 2 μM) was found to be 91.0%. For the same compound, the “% Inhibition of PDE5 activity, Average” value on PDE5 (Concentration = 20 μM) was 98.8%. Besides, in the experiment with bax/bak DKO MEF cells, the “levels of LC3II in etoposide treated cells” value is “reduced in the presence of MBCQ” and the “cell death induced by etoposide” value is listed as “significantly reduced cell death; also recorded: inhibits etoposide induced death”. Moreover, in the experiment on PI3P (FYVE-RFP), the “levels of FYVE-RFP spots” value was “rapidly and effectively reduced the levels of FYVE-RFP spots”. Moreover, in the experiment with PtdIns3P, the “cellular levels of PtdIns3P” value was “selectively reduced the cellular levels of PtdIns3P”. Also, in the experiment on Vps34 complexes [1], the “levels of GFP-p150 and Atg14L” value was “reduced the levels”; the “levels of flag-tagged Beclin1 and HA-Vps34” value was “considerably lower”. In the experiment with LC3II in liver, the “levels of LC3II in liver” value is listed as “significantly reduced the levels of LC3II”. In the experiment with Vps34 complexes [2], the “levels of endogenous Beclin1 in the presence of CHX” value is listed as “notably lower”; the “levels of endogenous Beclin1, Vps34 and Atg14L” value is “reduce the levels of endogenous Beclin1, Vps34 and Atg14L”.
As to `Fc1ccc(CNc2ncnc3ccc(F)cc23)cc1` [C43, 6-fluoro-N-(4-fluorobenzyl)quinazolin-4-amine], the “inhibiting activity towards PDE5 and other PDEs” value on PDE5 (compared with MBCQ) is given as “much reduced inhibiting activity”. The “cell death induced by etoposide” value in the experiment with bax/bak DKO MEF cells was “inhibits etoposide induced death”. Further, in the experiment with PI3P (FYVE-RFP), the “protein levels of FYVE-RFP by western blotting” value is given as “no effect on the protein levels of FYVE-RFP” and the “levels of FYVE-RFP spots” value was “reduce FYVE-RFP spots”. Also, the “cellular levels of PtdIns3P” value with PtdIns3P is “selectively reduced the cellular levels of PtdIns3P”. Further, in the experiment on Vps34 complexes [1], the “levels of GFP-p150 and Atg14L” value is “reduced the levels”; the “levels of flag-tagged Beclin1 and HA-Vps34” value is “considerably lower”. Moreover, in the experiment on Vps34 complexes [1] (with MG132 or NH4Cl), the “degradation of GFP-Beclin1, pathway” value was “promotes the degradation of Beclin1 through the proteasomal pathway”. Also, in the experiment on LC3II in liver, the “levels of LC3II in liver” value is given as “significantly reduced the levels of LC3II”. Also, in the experiment with Vps34 complexes [2], the “levels of endogenous Beclin1 in the presence of CHX” value is reported as “notably lower”; the “levels of endogenous Beclin1, Vps34 and Atg14L” value was “reduce the levels of endogenous Beclin1, Vps34 and Atg14L”.

These data come from patent publication US20120258975A1, “Potent Small Molecule Inhibitors of Autophagy, and Methods of Use Thereof” (Shanghai Institute of Organic Chemistry, priority 2009, published 2012).
